Legend:
[1] = tested on: A549 lung adenocarcinoma cells; assay: Amino acid uptake and inhibition in A549 cells; assay type: cell-based, human; conditions: A549, 30 minutes incubation
[2] = tested on: DU145 androgen-independent prostate carcinoma cells; assay: Amino acid uptake and inhibition in DU145 cells; assay type: cell-based, human; conditions: DU145, 30 minutes incubation
[3] = tested on: U87 glioblastoma cells; assay: Amino acid uptake and inhibition in U87 cells; assay type: cell-based, human; conditions: for Cell uptake: U87, 30 minutes incubation
[4] = tested on: MDA MB468 estrogen-independent breast carcinoma cells; assay: Amino acid uptake and inhibition in MDA MB468 cells; assay type: cell-based, human; conditions: MDA MB468, 30 minutes incubation
[5] = tested on: SKOV3 estrogen-positive ovarian adenocarcinoma cells; assay: Amino acid uptake and inhibition in SKOV3 cells; assay type: cell-based, human; conditions: for Cell uptake: SKOV3, 30 minutes incubation
[6] = tested on: DU145 tumor xenograft; assay: Biodistribution in DU145 tumor-bearing SCID mice; assay type: in vivo; conditions: listed as (R)-[^18F] FAMP 1
[7] = tested on: U87 tumor xenograft; assay: Biodistribution in U87 tumor-bearing SCID mice; assay type: in vivo; conditions: listed as (R)-[^18F] FAMP 1
[8] = tested on: MDA MB468 tumor xenograft; assay: Biodistribution in MDA MB468 tumor-bearing SCID mice; assay type: in vivo
[9] = tested on: rat orthotopic brain tumor model; conditions: rat orthotopic brain tumor model, 60 min; cited from earlier work
[10] = 15 min post injection, listed as (R)-[^18F] FAMP 1
[11] = 30 min post injection, listed as (R)-[^18F] FAMP 1
[12] = 60 min post injection, listed as (R)-[^18F] FAMP 1
[13] = 120 min post injection, listed as (R)-[^18F] FAMP 1

## CC(N)(C[18F])C(=O)O [(R)-[^18F]1] [2-amino-3-[^18F]fluoro-2-methylpropanoic acid]
[1]; 10 mM BCH
  Cell uptake: 2.3±0.3 % ID/5×10^5 cells
[1]; 10 mM MeAIB
  Cell uptake: 4.6±0.5 % ID/5×10^5 cells
[1]; Control (no inhibitor)
  Cell uptake: 5.1±0.3 % ID/5×10^5 cells
[2]; 10 mM BCH
  Cell uptake: 3.3±0.2 % ID/5×10^5 cells
[2]; 10 mM MeAIB
  Cell uptake: 3.6±0.2 % ID/5×10^5 cells
[2]; Control (no inhibitor)
  Cell uptake: 5.1±0.1 % ID/5×10^5 cells
[3]; 10 mM BCH
  Cell uptake: 4.8±0.3 % ID/5×10^5 cells
[3]; 10 mM MeAIB
  Cell uptake: 2.0±0.3 % ID/5×10^5 cells
[3]; Control (no inhibitor)
  Cell uptake: 6.0±0.3 % ID/5×10^5 cells
[3]; U87 cells, 10 mM BCH, relative to control
  inhibition of uptake by BCH: 20%
[3]; U87 cells, 10 mM MeAIB, relative to control
  inhibition of uptake by MeAIB: 67%
[4]; 10 mM BCH
  Cell uptake: 3.0±0.4 % ID/5×10^5 cells
[4]; 10 mM MeAIB
  Cell uptake: 4.4±0.2 % ID/5×10^5 cells
[4]; Control (no inhibitor)
  Cell uptake: 5.7±0.3 % ID/5×10^5 cells
[5]; 10 mM BCH
  Cell uptake: 7.6±0.2 % ID/5×10^5 cells
[5]; 10 mM MeAIB
  Cell uptake: 4.6±0.1 % ID/5×10^5 cells
[5]; Control (no inhibitor)
  Cell uptake: 9.2±0.2 % ID/5×10^5 cells
[5]; SKOV3 cells, 10 mM BCH, relative to control
  inhibition of uptake by BCH: 17%
[5]; SKOV3 cells, 10 mM MeAIB, relative to control
  inhibition of uptake by MeAIB: 50%
[6]; 15 min post injection
  uptake in blood: 5.2±1.2 %ID/g
  uptake in bone: 3.9±1.0 %ID/g
  uptake in brain: 1.0±0.3 %ID/g
  uptake in heart: 5.8±1.5 %ID/g
  uptake in kidney: 26±7.5 %ID/g
  uptake in liver: 7.2±3.4 %ID/g
  uptake in lung: 7.6±1.8 %ID/g
  uptake in muscle: 2.9±0.7 %ID/g
  uptake in pancreas: 62±20 %ID/g
  uptake in spleen: 17±7.6 %ID/g
  uptake in tumor: 8.8±1.9 %ID/g
[6]; 30 min post injection
  uptake in blood: 3.7±0.3 %ID/g
  uptake in bone: 4.0±0.3 %ID/g
  uptake in brain: 1.3±0.1 %ID/g
  uptake in heart: 5.6±0.6 %ID/g
  uptake in kidney: 16±2.2 %ID/g
  uptake in liver: 6.3±0.8 %ID/g
  uptake in lung: 3.1±0.4 %ID/g
  uptake in muscle: 3.5±0.5 %ID/g
  uptake in pancreas: 52±3.8 %ID/g
  uptake in spleen: 13±1.4 %ID/g
  uptake in tumor: 8.4±1.1 %ID/g
[6]; 60 min post injection
  uptake in blood: 2.2±0.3 %ID/g
  uptake in bone: 3.2±0.7 %ID/g
  uptake in brain: 1.5±0.3 %ID/g
  uptake in heart: 4.8±1.0 %ID/g
  uptake in kidney: 10±0.8 %ID/g
  uptake in liver: 5.5±1.0 %ID/g
  uptake in lung: 2.0±0.4 %ID/g
  uptake in muscle: 3.0±0.7 %ID/g
  uptake in pancreas: 39±6.9 %ID/g
  uptake in spleen: 11±2.9 %ID/g
  uptake in tumor: 7.9±1.7 %ID/g
[6]; 120 min post injection
  uptake in blood: 1.6±0.3 %ID/g
  uptake in bone: 2.6±0.5 %ID/g
  uptake in brain: 1.6±0.2 %ID/g
  uptake in heart: 4.9±0.9 %ID/g
  uptake in kidney: 7.9±0.7 %ID/g
  uptake in liver: 3.6±0.6 %ID/g
  uptake in lung: 2.1±0.8 %ID/g
  uptake in muscle: 2.7±0.8 %ID/g
  uptake in pancreas: 27±4.5 %ID/g
  uptake in spleen: 6.0±0.9 %ID/g
  uptake in tumor: 6.8±0.8 %ID/g
[7]; 15 min post injection
  uptake in blood: 3.2±0.2 %ID/g
  uptake in bone: 3.2±1.5 %ID/g
  uptake in brain: 0.8±0.2 %ID/g
  uptake in heart: 4.7±1.2 %ID/g
  uptake in kidney: 23±2.5 %ID/g
  uptake in liver: 7.6±2.9 %ID/g
  uptake in lung: 4.7±0.6 %ID/g
  uptake in muscle: 2.2±0.5 %ID/g
  uptake in pancreas: 62±6.3 %ID/g
  uptake in spleen: 19±6.4 %ID/g
  uptake in tumor: 6.5±1.2 %ID/g
[7]; 30 min post injection
  uptake in blood: 2.6±0.7 %ID/g
  uptake in bone: 3.5±0.5 %ID/g
  uptake in brain: 0.9±0.2 %ID/g
  uptake in heart: 4.3±0.6 %ID/g
  uptake in kidney: 15±2.1 %ID/g
  uptake in liver: 7.7±1.5 %ID/g
  uptake in lung: 3.4±0.5 %ID/g
  uptake in muscle: 2.2±0.5 %ID/g
  uptake in pancreas: 43±8.2 %ID/g
  uptake in spleen: 13±2.4 %ID/g
  uptake in tumor: 6.0±0.9 %ID/g
[7]; 60 min post injection
  uptake in blood: 1.6±0.4 %ID/g
  uptake in bone: 3.2±0.8 %ID/g
  uptake in brain: 1.2±0.2 %ID/g
  uptake in heart: 4.2±0.9 %ID/g
  uptake in kidney: 8.0±1.8 %ID/g
  uptake in liver: 6.9±1.4 %ID/g
  uptake in lung: 2.4±0.6 %ID/g
  uptake in muscle: 2.9±0.6 %ID/g
  uptake in pancreas: 28±5.0 %ID/g
  uptake in spleen: 7.0±1.4 %ID/g
  uptake in tumor: 4.2±0.3 %ID/g
[7]; 120 min post injection
  uptake in blood: 0.8±0.1 %ID/g
  uptake in bone: 1.5±0.2 %ID/g
  uptake in brain: 1.2±0.1 %ID/g
  uptake in heart: 3.6±0.4 %ID/g
  uptake in kidney: 4.2±0.4 %ID/g
  uptake in liver: 8.0±0.7 %ID/g
  uptake in lung: 1.3±0.2 %ID/g
  uptake in muscle: 1.6±0.2 %ID/g
  uptake in pancreas: 15.1±3.2 %ID/g
  uptake in spleen: 3.5±0.4 %ID/g
  uptake in tumor: 3.1±0.8 %ID/g
[8]; [10]
  uptake in blood: 3.0±0.2 %ID/g
  uptake in bone: 2.7±0.6 %ID/g
  uptake in brain: 0.7±0.2 %ID/g
  uptake in heart: 3.9±0.6 %ID/g
  uptake in kidney: 17±2.3 %ID/g
  uptake in liver: 4.4±0.9 %ID/g
  uptake in lung: 5.4±0.6 %ID/g
  uptake in muscle: 2.2±0.8 %ID/g
  uptake in pancreas: 61±8.4 %ID/g
  uptake in spleen: 8.7±2.2 %ID/g
  uptake in tumor: 6.0±1.8 %ID/g
[8]; [11]
  uptake in blood: 2.0±0.4 %ID/g
  uptake in bone: 2.2±0.6 %ID/g
  uptake in brain: 0.8±0.1 %ID/g
  uptake in heart: 3.5±1.0 %ID/g
  uptake in kidney: 9.1±2.8 %ID/g
  uptake in liver: 4.5±1.0 %ID/g
  uptake in lung: 3.3±1.1 %ID/g
  uptake in muscle: 2.0±0.6 %ID/g
  uptake in pancreas: 39±11 %ID/g
  uptake in spleen: 6.5±1.1 %ID/g
  uptake in tumor: 5.3±1.7 %ID/g
[8]; 60 min post injection
  uptake in tumor: 4.8±1.2 %ID/g
[8]; [12]
  uptake in blood: 1.1±0.3 %ID/g
  uptake in bone: 1.7±0.5 %ID/g
  uptake in brain: 0.8±0.1 %ID/g
  uptake in heart: 3.3±0.8 %ID/g
  uptake in kidney: 5.0±1.1 %ID/g
  uptake in liver: 3.8±0.9 %ID/g
  uptake in lung: 2.2±0.5 %ID/g
  uptake in muscle: 2.0±0.6 %ID/g
  uptake in pancreas: 20±7.2 %ID/g
  uptake in spleen: 4.1±1.3 %ID/g
[8]; [13]
  uptake in blood: 0.5±0.2 %ID/g
  uptake in bone: 1.1±0.5 %ID/g
  uptake in brain: 0.9±0.1 %ID/g
  uptake in heart: 2.3±0.4 %ID/g
  uptake in kidney: 2.4±1.1 %ID/g
  uptake in liver: 4.1±0.8 %ID/g
  uptake in lung: 1.1±0.4 %ID/g
  uptake in muscle: 1.6±0.6 %ID/g
  uptake in pancreas: 11±4.6 %ID/g
  uptake in spleen: 2.2±1.1 %ID/g
  uptake in tumor: 3.6±0.7 %ID/g
[9]
  brain uptake: 0.1±0.02 %ID/g
